Source: patent US20120004160A1, “METHODS FOR IDENTIFYING AND COMPOUNDS USEFUL FOR THE DIAGNOSIS AND TREATMENT OF DISEASES INVOLVING INFLAMMATION” (Glaxo Group Ltd., priority 2009, published 2012)

test system: human primary macrophages; test: IL-10 release measured in the same supernatant (additional cytokine measurements); type: cell-based; settings: effect of Ad-shRNA on IL-10 release; supernatant of on-target assay, macrophages triggered with IgG-coated beads; symbols not defined
Method: 20 μL of supernatant was used in a TNFα readout assay (Meso Scale Discovery, (MSD), Gaithersburg, Md.). The measurements were performed according to manufacturer's instructions. 20 μL of sample solution were transferred by Tecan384 head on a Tecan freedom station to wells of a 384 well TNFα MSD readout plate(Meso Scale Discovery Catalog #K211BHB-6). A calibrator curve using calibrator from MSD was created using a multichannel pipette. The calibrator curve typically started at 10 ng/mL followed by 6 steps of a 3-fold dilution with a final volume of 10 μL. Plates were sealed and incubated for 2 hours on a shaking platform (set at ˜100 rounds per minute) at room temperature. Detection antibody (1.0 μg/mL) was added to the wells (10 μL for the calibrator and 20 μL for the samples) using a repetitive multichannel. Plates were sealed and incubated overnight at room temperature on a shaking platform (set at ˜100 rounds per minute). The plates were washed 3 times with PBS+0.05% Tween-20 using a Tecan washer (TECAN type, PW384). 35 μl of 2× Read Buffer T was added to each well using a multidrop. After addition of Read Buffer, the plates were read on an MSD SI6000 reader.
For the measurements of additional cytokines, such as IL-10, the supernatants were transferred using the TECAN Freedom with a TEMO-384 head. The cytokines were measured using 384 well plates purchased at Meso Scale Discovery and the methodology used is the same as described in Example 5. Hits were prioritized based on effects on IL-10 release.
In an shRNA screen there is the possibility that the observed effects are due to off-target effects: the shRNA knock down construct has an effect on expression of a different mRNA than the intended mRNA. To exclude possible off-target effects by the knockdown constructs the following “on-target” analysis was followed. For each target, the original Ad-shRNA plus 5 extra Ad-shRNA constructs against the same target were tested in the primary screening assay. If at least two independent shRNA sequences (including original confirmed drug targetAd-shRNA) give the same effect in one donor, the probability this is due to off target shRNA effects is negligible and the effect is declared “on-target”. For the on-target assay, the methods similar to the screen and rescreen were used as described in Examples 5 and 6. The TNFα release assay was performed as per Rescreen (see Example 6) except that the negative control viruses (Luc_v13) were repropagated alongside the on-target viruses. In total, 40 targets were taken along in the on-target assay, and for 15 targets multiple shRNA came up as a hit. In addition, IL-10 release was measured in the same supernatant as described in Examples 5 and 7. Table 3 indicates the effects of the shRNAs on the IL-10 release.

| Substance | IL-10 sparing |
| --- | --- |
| GTTCTGCTGTGCATCTGCC: Ad-shRNA knock-down construct, KD target sequence against OPRL1 | ✓ |
| GGTGTCTTACTGCTGACTC: Ad-shRNA knock-down construct, target sequence against TNFRSF11A (Table 3 only, no SEQ ID NO) (the letters are possibly those of the target site) | ✓ |
| TGTCTACACCACTGCTGCC: Ad-shRNA knock-down construct, KD target sequence against RYR1 (the letters are possibly those of the target site; listed as Homo sapiens) | ✓ |
| CTTGTGCGATGCTTTGAAC: Ad-shRNA knock-down construct, KD target sequence against ATIC | ✓ |
| TATGCTGTAGGCTGCCTGC: Ad-shRNA knock-down construct, KD target sequence against PIK3CB (listed as Homo sapiens) | ✓ |
| CCAATGGTTACATGGCTCC: Ad-shRNA knock-down construct, KD target sequence against GRK7 | ✓ |
| CTTGTGTGCCAGTGGATGC: Ad-shRNA knock-down construct, KD target sequence against BRS3 | ✓ |
| CTCAGGAAGGTCTTTCCAC: Ad-shRNA knock-down construct, KD target sequence against SNF1LK | ✓ |
| CATACTGGAGCCTGTAACC: Ad-shRNA knock-down construct, KD target sequence against TNFRSF10C | ✓ |
| AGACATGGATGGGAAAGAC: Ad-shRNA knock-down construct, KD target sequence against CBR3 (the letters are possibly those of the target site) | ✓ |
| ATGACCCTACAGGTTTACC: Ad-shRNA knock-down construct, KD target sequence against NEK10 | ✓ |
